Series [1] can be described thus: Vapor pressure of the sublimable substance. The following applies: absolute pressure. As for the experimental part: The sublimable substance has a vapor pressure of 0.1 Pa or more and 1.0 Pa or less at normal temperatures. Here, the normal temperatures include a room temperature. The normal temperatures fall within a temperature range of 5° C. or more and 35° C. or less, for example. The normal temperatures fall within a temperature range of 10° C. or more and 30° C. or less, for example. In this specification, the value of vapor pressure is indicated as absolute pressure relative to absolute vacuum.

On series [2], the source says:
The ability of the solvent to dissolve the sublimable substance is indicated, for example, by the solubility of the sublimable substance in the solvent. Hereinafter, the solubility of the sublimable substance in the solvent is appropriately referred to as solubility Rm. The solubility Rm is a limit amount of sublimable substance that is soluble in a certain amount of solvent. As the solubility Rm increases, the ability of the solvent to dissolve the sublimable substance increases. Therefore, the solubility Rm is preferably high.
In general, the solubility Rm varies with temperature. The treatment liquid is used at normal temperatures. Therefore, the solubility Rm is preferably high at normal temperatures. The solubility Rm is preferably 150 vol % or more at normal temperatures.
For example, when the maximum volume of the sublimable substance soluble in the solvent of volume Q2c is Q1m, the solubility Rm is a ratio of the maximum volume Q1m to the volume Q2c. Specifically, the solubility Rm is defined by the following formula.

The term vapor pressure denotes the pressure of vapour in equilibrium with the condensed phase.

Regarding `CC(=NO)c1ccccc1` [acetophenone oxime], the “vapor pressure at 25° C.” value in series [1] is given as 0.27 Pa. Moreover, in series [2], the “solubility Rm at 25° C.” value is reported as 186 vol % and the “solubility Rm at normal temperatures” value is ≥ 150 vol %.

For the compound `ON=C1CCCCC1` [cyclohexanone oxime], in series [1], the “vapor pressure at 25° C.” value was 1.45 Pa.

On to `CC(=NO)C(C)(C)C` [pinacolone oxime], for which the “vapor pressure at 25° C.” value in series [1] worked out at 35.3 Pa.

Values taken from US20240290636A1, “SUBSTRATE TREATING METHOD, SUBSTRATE TREATING APPARATUS, AND TREATMENT LIQUID” (SCREEN Holdings Co., Ltd., priority 2021, published 2024).
